Paper PMC10893631, “Receptor-based pharmacophore modeling, molecular docking, synthesis and biological evaluation of novel VEGFR-2, FGFR-1, and BRAF multi-kinase inhibitors” (BMC Chemistry, 2024)

Tests used:
Assay in all cases: NCI SRB growth inhibition (single dose 10 µM / five-dose)
Type in all cases: cell-based, human
[1] = tested on: NCI/ADR-RES
Procedure, shortened: (§1)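 TCA fixation ends the assay for adherent lines; unbound SRB is rinsed off five times with 1% acetic acid. Drug is added from a DMSO concentrate at 400× the maximum final concentration, made up to 2× in gentamicin-containing medium, then halved on addition to wells.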

[2] = tested on: 786–0
Procedure, shortened: as §1

[3] = tested on: MALME-3 M
Procedure, shortened: as §1

[4] = tested on: CCRF-CEM
Procedure, shortened: as §1

[5] = tested on: EKVX
Procedure, shortened: as §1

[6] = tested on: BT-549
Procedure, shortened: as §1

[7] = tested on: SK-MEL-2
Procedure, shortened: as §1

[8] = tested on: CAKI-1
Procedure, shortened: as §1

[9] = tested on: A549/ATCC
Procedure, shortened: as §1

[10] = tested on: OVCAR-5
Procedure, shortened: as §1

[11] = tested on: TK-10
Procedure, shortened: as §1

[12] = tested on: SF-295
Procedure, shortened: as §1

[13] = tested on: RXF 393
Procedure, shortened: as §1

[14] = tested on: HT29
Procedure, shortened: as §1

[15] = tested on: SK-MEL-28
Procedure, shortened: as §1

[16] = tested on: HOP-92; details: HOP-92 (Non-small cell lung cancer), 10 µM
Procedure, shortened: as §1

[17] = tested on: HCC-2998
Procedure, shortened: as §1

[18] = tested on: NCI-H226
Procedure, shortened: as §1

[19] = tested on: UACC-257
Procedure, shortened: as §1

[20] = tested on: MDA-MB-231/ATCC
Procedure, shortened: as §1

[21] = tested on: MOLT-4
Procedure, shortened: as §1

[22] = tested on: SK-MEL-5
Procedure, shortened: as §1

[23] = tested on: HS 578 T
Procedure, shortened: as §1

[24] = tested on: SR
Procedure, shortened: as §1

[25] = tested on: M14
Procedure, shortened: as §1

[26] = tested on: ACHN
Procedure, shortened: as §1

## N'-(2-Hydroxybenzylidene)-2-phenyl-1H-benzo[d]imidazole-5-carbohydrazide [8a]
[1]; NCI/ADR-RES (Ovarian cancer), 10 µM
  GI%: 63.15%
[1]; NCI/ADR-RES, Ovarian cancer, five-dose
  GI50: 3.51 µM
[2]; 786–0 (Renal cancer), 10 µM
  GI%: 91.76%
[2]; 786–0, Renal cancer, five-dose
  GI50: 3.84 µM
[3]; MALME-3 M (Melanoma), 10 µM
  GI%: 99.32%
[3]; MALME-3 M, Melanoma, five-dose
  GI50: 1.88 µM
[4]; CCRF-CEM (Leukemia), 10 µM
  GI%: 88.16%
[4]; CCRF-CEM, Leukemia, five-dose
  GI50: 0.26 µM
[5]; EKVX (Non-small cell lung cancer), 10 µM
  GI%: 96.49%
[5]; EKVX, Non-small cell lung cancer, five-dose
  GI50: 1.85 µM
[6]; BT-549 (Breast cancer), 10 µM
  GI%: L (GI% > 100)
[6]; BT-549, Breast cancer, five-dose
  GI50: 1.8 µM
[7]; SK-MEL-2 (Melanoma), 10 µM
  GI%: 60.21%
[7]; SK-MEL-2, Melanoma, five-dose
  GI50: 3.19 µM
[8]; CAKI-1 (Renal cancer), 10 µM
  GI%: L (GI% > 100)
[8]; CAKI-1, Renal cancer, five-dose
  GI50: 3.48 µM
[9]; A549/ATCC (Non-small cell lung cancer), 10 µM
  GI%: L (GI% > 100)
[9]; A549/ATCC, Non-small cell lung cancer, five-dose
  GI50: 3.41 µM
[10]; OVCAR-5 (Ovarian cancer), 10 µM
  GI%: 77.04%
[10]; OVCAR-5, Ovarian cancer, five-dose
  GI50: 8.5 µM
[11]; TK-10 (Renal cancer), 10 µM
  GI%: 65.04%
[11]; TK-10, Renal cancer, five-dose
  GI50: 4.53 µM
[12]; SF-295 (CNS cancer), 10 µM
  GI%: L (GI% > 100)
[12]; SF-295, CNS cancer, five-dose
  GI50: 2.7 µM
[13]; RXF 393 (Renal cancer), 10 µM
  GI%: L (GI% > 100)
[13]; RXF 393, Renal cancer, five-dose
  GI50: 2.37 µM
[14]; HT29 (Colon cancer), 10 µM
  GI%: L (GI% > 100)
[14]; HT29, Colon cancer, five-dose
  GI50: 2.63 µM
[15]; SK-MEL-28 (Melanoma), 10 µM
  GI%: 82.67%
[15]; SK-MEL-28, Melanoma, five-dose
  GI50: 4.62 µM
[16]
  GI%: L (GI% > 100)
[17]; HCC-2998 (Colon cancer), 10 µM
  GI%: 73.20%
[17]; HCC-2998, Colon cancer, five-dose
  GI50: 3.91 µM
[18]; NCI-H226 (Non-small cell lung cancer), 10 µM
  GI%: 93.32%
[18]; NCI-H226, Non-small cell lung cancer, five-dose
  GI50: 4.02 µM
[19]; UACC-257 (Melanoma), 10 µM
  GI%: 88.80%
[19]; UACC-257, Melanoma, five-dose
  GI50: 4 µM
[20]; MDA-MB-231/ATCC (Breast cancer), 10 µM
  GI%: 88.16%
[20]; MDA-MB-231/ATCC, Breast cancer, five-dose
  GI50: 2.03 µM
[21]; MOLT-4 (Leukemia), 10 µM
  GI%: 89.54%
[21]; MOLT-4, Leukemia, five-dose
  GI50: 1.62 µM
[22]; SK-MEL-5 (Melanoma), 10 µM
  GI%: 85.73%
[22]; SK-MEL-5, Melanoma, five-dose
  GI50: 3.75 µM
[23]; HS 578 T (Breast cancer), 10 µM
  GI%: L (GI% > 100)
[23]; HS 578 T, Breast cancer, five-dose
  GI50: 2.49 µM
[24]; SR (Leukemia), 10 µM
  GI%: 92.31%
[24]; SR, Leukemia, five-dose
  GI50: 1.68 µM
[25]; M14 (Melanoma), 10 µM
  GI%: 81.80%
[25]; M14, Melanoma, five-dose
  GI50: 0.92 µM
[26]; ACHN (Renal cancer), 10 µM
  GI%: L (GI% > 100)
[26]; ACHN, Renal cancer, five-dose
  GI50: 3.28 µM
